What was measured:
Format in all cases: in vivo
Cocklebur [1] = assay: pre-emergence herbicide test; settings: Xanthium strumarium, pre-emergence, 0.25 lb/A; read-out: % plant inhibition
How it was run: (§1)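 Soil-applied pre-emergence screen: compound added to cover topsoil over sown seeds, pans held on greenhouse bench with subirrigation, % inhibition scored ~2 weeks later.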

Velvetleaf [2] = assay: pre-emergence herbicide test; settings: Abutilon theophrasti, pre-emergence, 0.25 lb/A; read-out: % plant inhibition
How it was run: as §1

Corn [3] = assay: pre-emergence herbicide test; settings: Zea mays, pre-emergence, 0.25 lb/A; read-out: % plant inhibition
How it was run: as §1

Downy Brome [4] = assay: pre-emergence herbicide test; settings: Bromus tectorum, pre-emergence, 0.25 lb/A; read-out: % plant inhibition
How it was run: as §1

Birdseye Speedwell [5] = assay: pre-emergence herbicide test; settings: pre-emergence, 0.25 lb/A; read-out: % plant inhibition
How it was run: as §1

Blackgrass [6] = assay: pre-emergence herbicide test; settings: Alopecurus myosuroides, pre-emergence, 0.25 lb/A; read-out: % plant inhibition
How it was run: as §1

Common Chickweed [7] = assay: pre-emergence herbicide test; settings: pre-emergence, 0.25 lb/A; read-out: % plant inhibition
How it was run: as §1

Rape [8] = assay: pre-emergence herbicide test; settings: pre-emergence, 0.25 lb/A; read-out: % plant inhibition
How it was run: as §1

Wheat [9] = assay: pre-emergence herbicide test; settings: Triticum aestivum, pre-emergence, 0.25 lb/A; read-out: % plant inhibition
How it was run: as §1

Soybean [10] = assay: pre-emergence herbicide test; settings: Glycine max, pre-emergence, 0.25 lb/A; read-out: % plant inhibition
How it was run: as §1

Green Foxtail [11] = assay: pre-emergence herbicide test; settings: Setaria viridis, pre-emergence; 0.25 lb/A; read-out: % plant inhibition
How it was run: as §1

Seedling Johnsongrass [12] = assay: pre-emergence herbicide test; settings: Sorghum halepense, pre-emergence, 0.25 lb/A; read-out: % plant inhibition
How it was run: as §1

Bedstraw Catchweed [13] = assay: pre-emergence herbicide test; settings: Galium aparine, pre-emergence, 0.25 lb/A; read-out: % plant inhibition
How it was run: as §1

Barnyardgrass [14] = assay: pre-emergence herbicide test; settings: Echinochloa crus-galli, pre-emergence, 0.25 lb/A; read-out: % plant inhibition
How it was run: as §1

Giant Foxtail [15] = assay: pre-emergence herbicide test; settings: Setaria faberi, pre-emergence, 0.25 lb/A; read-out: % plant inhibition
How it was run: as §1

Morning Glory [16] = assay: pre-emergence herbicide test; settings: Ipomoea, pre-emergence, 0.25 lb/A; read-out: % plant inhibition
How it was run: as §1

Wild Oats [17] = assay: pre-emergence herbicide test; settings: Avena fatua, pre-emergence, 0.25 lb/A; read-out: % plant inhibition
How it was run: as §1

Cocklebur [18] = assay: post-emergence herbicide test; settings: Xanthium strumarium, post-emergence, 0.25 lb/A; read-out: % plant inhibition
How it was run: (§2)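 Sown pans kept on a greenhouse bench with irrigation or subirrigation until plants reached two to three weeks, then sprayed at 170.3 kPa (10 psig). Spray mix held about 0.4% by volume emulsifier; total volume 1870 L/Ha. Result expressed as percent inhibition.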

Velvetleaf [19] = assay: post-emergence herbicide test; settings: Abutilon theophrasti, post-emergence, 0.25 lb/A; read-out: % plant inhibition
How it was run: as §2

Corn [20] = assay: post-emergence herbicide test; settings: Zea mays, post-emergence, 0.25 lb/A; read-out: % plant inhibition
How it was run: as §2

Downy Brome [21] = assay: post-emergence herbicide test; settings: Bromus tectorum, post-emergence, 0.25 lb/A; read-out: % plant inhibition
How it was run: as §2

Birdseye Speedwell [22] = assay: post-emergence herbicide test; settings: post-emergence, 0.25 lb/A; read-out: % plant inhibition
How it was run: as §2

Blackgrass [23] = assay: post-emergence herbicide test; settings: Alopecurus myosuroides, post-emergence, 0.25 lb/A; read-out: % plant inhibition
How it was run: as §2

Common Chickweed [24] = assay: post-emergence herbicide test; settings: post-emergence, 0.25 lb/A; read-out: % plant inhibition
How it was run: as §2

Rape [25] = assay: post-emergence herbicide test; settings: post-emergence, 0.25 lb/A; read-out: % plant inhibition
How it was run: as §2

Wheat [26] = assay: post-emergence herbicide test; settings: Triticum aestivum, post-emergence, 0.25 lb/A; read-out: % plant inhibition
How it was run: as §2

Soybean [27] = assay: post-emergence herbicide test; settings: Glycine max, post-emergence, 0.25 lb/A; read-out: % plant inhibition
How it was run: as §2

Green Foxtail [28] = assay: post-emergence herbicide test; settings: Setaria viridis, post-emergence, 0.25 lb/A; read-out: % plant inhibition
How it was run: as §2

Seedling Johnsongrass [29] = assay: post-emergence herbicide test; settings: Sorghum halepense, post-emergence, 0.25 lb/A; read-out: % plant inhibition
How it was run: as §2

Bedstraw Catchweed [30] = assay: post-emergence herbicide test; settings: Galium aparine, post-emergence, 0.25 lb/A; read-out: % plant inhibition
How it was run: as §2

Barnyardgrass [31] = assay: post-emergence herbicide test; settings: Echinochloa crus-galli, post-emergence, 0.25 lb/A; read-out: % plant inhibition
How it was run: as §2

Giant Foxtail [32] = assay: post-emergence herbicide test; settings: Setaria faberi, post-emergence, 0.25 lb/A; read-out: % plant inhibition
How it was run: as §2

Morning Glory [33] = assay: post-emergence herbicide test; settings: Ipomoea, post-emergence, 0.25 lb/A; read-out: % plant inhibition
How it was run: as §2

Wild Oats [34] = assay: post-emergence herbicide test; settings: Avena fatua, post-emergence, 0.25 lb/A; read-out: % plant inhibition
How it was run: as §2

| Structure (SMILES) | inhibition at 280.212 g/ha (Cocklebur [1]) [%] | inhibition at 280.212 g/ha (Velvetleaf [2]) [%] | inhibition at 280.212 g/ha (Corn [3]) [%] | inhibition at 280.212 g/ha (Downy Brome [4]) [%] | inhibition at 280.212 g/ha (Birdseye Speedwell [5]) [%] | inhibition at 280.212 g/ha (Blackgrass [6]) [%] | inhibition at 280.212 g/ha (Common Chickweed [7]) [%] | inhibition at 280.212 g/ha (Rape [8]) [%] | inhibition at 280.212 g/ha (Wheat [9]) [%] | inhibition at 280.212 g/ha (Soybean [10]) [%] | inhibition at 280.212 g/ha (Green Foxtail [11]) [%] | inhibition at 280.212 g/ha (Seedling Johnsongrass [12]) [%] | inhibition at 280.212 g/ha (Bedstraw Catchweed [13]) [%] | inhibition at 280.212 g/ha (Barnyardgrass [14]) [%] | inhibition at 280.212 g/ha (Giant Foxtail [15]) [%] | inhibition at 280.212 g/ha (Morning Glory [16]) [%] | inhibition at 280.212 g/ha (Wild Oats [17]) [%] | inhibition at 280.212 g/ha (Cocklebur [18]) [%] | inhibition at 280.212 g/ha (Velvetleaf [19]) [%] | inhibition at 280.212 g/ha (Corn [20]) [%] | also measured |
| --- | --- | --- | --- | --- | --- | --- | --- | --- | --- | --- | --- | --- | --- | --- | --- | --- | --- | --- | --- | --- | --- |
| CCCCCCCCCCCCOC(=O)c1cc(-c2nn(C)c(C(F)(F)F)c2C)c(F)cc1Cl [Compound 49] | 0 | 0 | 0 | 5 | 55 | 5 | 5 | 0 | 0 | 0 | 60 | 45 | 5 | 75 | 10 | 40 | 5 | 50 | 10 | 5 | inhibition at 280.212 g/ha (Downy Brome [21]): 20%; inhibition at 280.212 g/ha (Birdseye Speedwell [22]): 80%; inhibition at 280.212 g/ha (Blackgrass [23]): 20%; inhibition at 280.212 g/ha (Common Chickweed [24]): 10%; inhibition at 280.212 g/ha (Rape [25]): 20%; inhibition at 280.212 g/ha (Wheat [26]): 10%; inhibition at 280.212 g/ha (Soybean [27]): 5%; inhibition at 280.212 g/ha (Green Foxtail [28]): 60%; inhibition at 280.212 g/ha (Seedling Johnsongrass [29]): 5%; inhibition at 280.212 g/ha (Bedstraw Catchweed [30]): 35%; inhibition at 280.212 g/ha (Barnyardgrass [31]): 0%; inhibition at 280.212 g/ha (Giant Foxtail [32]): 0%; inhibition at 280.212 g/ha (Morning Glory [33]): 5%; inhibition at 280.212 g/ha (Wild Oats [34]): 20% |
| Cc1c(-c2cc(CSCC(C)C)c(Cl)cc2F)nn(C)c1C(F)(F)F [Compound 32] | 25 | 25 | 5 | 0 | 45 | 10 | 5 | 5 | 0 | 8 | 40 | 85 | 5 | 5 | 65 | 10 | 0 | 65 | 85 | 15 | inhibition at 280.212 g/ha (Downy Brome [21]): 25%; inhibition at 280.212 g/ha (Birdseye Speedwell [22]): 90%; inhibition at 280.212 g/ha (Blackgrass [23]): 25%; inhibition at 280.212 g/ha (Common Chickweed [24]): 20%; inhibition at 280.212 g/ha (Rape [25]): 50%; inhibition at 280.212 g/ha (Wheat [26]): 15%; inhibition at 280.212 g/ha (Soybean [27]): 20%; inhibition at 280.212 g/ha (Green Foxtail [28]): 65%; inhibition at 280.212 g/ha (Seedling Johnsongrass [29]): 45%; inhibition at 280.212 g/ha (Bedstraw Catchweed [30]): 45%; inhibition at 280.212 g/ha (Barnyardgrass [31]): 35%; inhibition at 280.212 g/ha (Giant Foxtail [32]): 45%; inhibition at 280.212 g/ha (Morning Glory [33]): 40%; inhibition at 280.212 g/ha (Wild Oats [34]): 20% |
